Experiments:
[1] = system: human stomach cancer cells (MKN-45); assay: Experiment 5: pharmacokinetics of Cupid-scFv antibody (24 h before)+^211At-psyche-BR in MKN-45 cancer-bearing mouse models; type: in vivo, mice (BALB/cSlc nu/nu)
Procedure: The present experiment used human stomach cancer cells (MKN-45) expressing carcinoembryonic antigen (CEA). 9-week-old male immunodeficient mice (BALB/cSlc nu/nu) were used. MKN-45 cells (1×10^7/0.1 ml) were transplanted into the mice's subcutis on the right shoulder dorsal side to produce cancer-bearing mouse models. The mice were divided into four groups when the tumor volume became a predetermined size (on Day 13 after the transplantation). The Cupid-scFv antibody was administered in 100 μmol/0.1 ml via the caudal vein of each mouse. Twenty-four hours after administration of the Cupid-scFv antibody, ^211At-psyche-BR (about 0.25 MBq/100 ml) was administered via the caudal vein of each mouse. One minute, 1 hour, 6 hours, and 24 hours after administration of the ^211At-psyche-BR, the mice were euthanized by collecting whole blood from the heart of each mouse under isoflurane anesthesia, and tumor tissues and normal tissues/organs were then excised. Normal tissues/organs: skin (lower right limb), muscle (right gastrocnemius muscle), heart, lung, spleen, pancreas, white fat (upper portion of right side testis), testis (both sides), stomach, stomach contents, small intestine (including contents), large intestine (including contents), liver, brown fat (interscapular), submandibular gland, thyroid gland (together with trachea), bone (right femur), cerebrum, eyeballs (both sides), bladder, and urine; the remaining residues were divided into three equal parts, and the three equal parts were defined to be residue-1, residue-2, and residue-3. After that, the weights of blood, plasma, urine, tumor, and normal tissues/organs were measured, and the radioactivity thereof was then measured using a γ counter. The amounts of the ^211At-psyche-BR (radioactivity) accumulated in the blood, plasma, urine, tumor, and normal tissues/organs were calculated. That is to say, the rates (% ID/g) of the ^211At-psyche-BR accumulated per unit weight (g) of the blood, plasma, urine, tumor, and normal tissues/organs, in the administered ^211At-psyche-BR were shown. Regarding accumulation of the ^211At-psyche-BR in the thyroid gland, since the weight of the thyroid gland could not be precisely measured, it was shown that the rate (% ID) of the ^211At-psyche-BR accumulated in the thyroid gland in the administered ^211At-psyche-BR.

[2] = system: human stomach cancer cells (MKN-45); assay: Experiment 7: pharmacokinetics of ^211At-psyche-BR in the absence of Cupid-scFv antibody in MKN-45 cancer-bearing mouse models; type: in vivo, mice (BALB/cSlc nu/nu); details: no Cupid-scFv antibody
Procedure: The present experiment used human stomach cancer cells (MKN-45) expressing carcinoembryonic antigen (CEA). 9-week-old male immunodeficient mice (BALB/cSlc nu/nu) were used. MKN-45 cells (1×10^7/0.1 ml) were transplanted into the mice's subcutis on the right shoulder dorsal side to produce cancer-bearing mouse models. The mice were divided into four groups at the time the tumor volume became a predetermined size (on Day 19 after the transplantation), and ^211At-psyche-BR was administered via the caudal vein of each mouse. One minute, 1 hour, 6 hours, and 24 hours after administration of the ^211At-psyche-BR, the mice were euthanized by collecting whole blood from the heart of each mouse under isoflurane anesthesia, and tumor tissues and normal tissues/organs were then excised. Normal tissues/organs: muscle (right gastrocnemius muscle), heart, lung, spleen, pancreas, testis (both sides), stomach, stomach contents, small intestine (not including contents), large intestine (not including contents), liver, kidney, submandibular gland, thyroid gland (together with trachea), bone (right femur), and cerebrum. After that, the weights of blood, plasma, tumor, and normal tissues/organs were measured, and the radioactivity thereof was then measured using a γ counter. The amounts of the ^211At-psyche-BR (radioactivity) accumulated in the blood, plasma, urine, tumor, and normal tissues/organs were calculated. That is to say, the rates (% ID/g) of the ^211At-psyche-BR accumulated per unit weight (g) of the blood, plasma, urine, tumor, and normal tissues/organs, in the administered ^211At-psyche-BR were shown. Regarding accumulation of the ^211At-psyche-BR in the thyroid gland, since the weight of the thyroid gland could not be precisely measured, it was shown that the rate (% ID) of the ^211At-psyche-BR accumulated in the thyroid gland in the administered ^211At-psyche-BR.

With `N=C1N[C@H]2[C@H](CS[C@H]2CCCCNC(=O)CCCCCC(=O)Nc2cc(NC(=O)CCCCCC(=O)NCCCC[C@@H]3SC[C@@H]4NC(=N)N[C@@H]43)cc(C(=O)NCCOCCOCCNC(=O)c3cccc([211At])c3)c2)N1` [^211At-psyche-BR] the “Accumulation in the kidney” value ([1]; after 1 minute) was 28.6±1.3 % ID/g, the “Accumulation in the liver” value ([1]; after 1 minute) was 13.3±2.2 % ID/g and the “Accumulation in the lung” value ([1]; after 1 minute) was 14.4±1.6 % ID/g. For the same compound, the “Accumulation in the spleen” value ([1]; after 1 minute) was 4.7±0.4 % ID/g, the “Accumulation in the tumor” value ([1]; after 1 minute) was 0.6±0.1 % ID/g and the “Clearance from the blood” value ([1]; after 1 minute) was 46.9±1.1 % ID/g. For the same compound, the tumor-to-blood ratio ([1]; after 1 minute) was 0.01±0.00, the tumor-to-muscle ratio ([1]; after 1 minute) was 1.22±0.05 and the “Accumulation in the kidney” value ([1]; after 1 hour) was 17.1±1.4 % ID/g. For the same compound, the “Accumulation in the liver” value ([1]; after 1 hour) was 11.4±0.7 % ID/g, the “Accumulation in the lung” value ([1]; after 1 hour) was 13.2±2.2 % ID/g and the “Accumulation in the spleen” value ([1]; after 1 hour) was 7.1±0.2 % ID/g. The “Accumulation in the tumor” value ([1]; after 1 hour) was 3.1±0.7 % ID/g, the “Clearance from the blood” value ([1]; after 1 hour) was 39.5±5.2 % ID/g and the tumor-to-blood ratio ([1]; after 1 hour) was 0.08±0.02. For the same compound, the tumor-to-muscle ratio ([1]; after 1 hour) was 5.11±1.81, the “Accumulation in the kidney” value ([1]; after 6 hours) was 9.5±0.2 % ID/g and the “Accumulation in the liver” value ([1]; after 6 hours) was 12.8±0.2 % ID/g. The “Accumulation in the lung” value ([1]; after 6 hours) was 9.1±1.0 % ID/g, the “Accumulation in the spleen” value ([1]; after 6 hours) was 8.4±1.0 % ID/g and the “Accumulation in the tumor” value ([1]; after 6 hours) was 9.3±0.6 % ID/g. The “Clearance from the blood” value ([1]; after 6 hours) was 25.3±1.0 % ID/g, the tumor-to-blood ratio ([1]; after 6 hours) was 0.7±0.02 and the tumor-to-muscle ratio ([1]; after 6 hours) was 12.80±1.86. The “Accumulation in the thyroid gland” value ([1]; after 24 h) was 0.15±0.05 % ID, the “Accumulation in the kidney” value ([1]; after 24 hours) was 5.4±0.5% and the “Accumulation in the liver” value ([1]; after 24 hours) was 7.8±0.9%. The “Accumulation in the lung” value ([1]; after 24 hours) was 5.3±0.1%, the “Accumulation in the spleen” value ([1]; after 24 hours) was 5.5±1.1% and the “Accumulation in the tumor” value ([1]; after 24 hours) was 18.4±2.5%. The “Clearance from the blood” value ([1]; after 24 hours) was 8.3±0.5 % ID/g, the “amount administered excreted (blood)” value ([1]; after 24 hours) was “about 92%” and the tumor-to-blood ratio ([1]; after 24 hours) was 2.23±0.41. The tumor-to-muscle ratio ([1]; after 24 hours) was 25.07±3.68.

For `N=C1N[C@H]2[C@H](CS[C@H]2CCCCC(=O)NCCCCCC(=O)Nc2cc(NC(=O)CCCCCNC(=O)CCCC[C@@H]3SC[C@@H]4NC(=N)N[C@@H]43)cc(C(=O)NCCOCCOCCNC(=O)c3cccc([211At])c3)c2)N1` [^211At-psyche-B], the “Accumulation in the blood” value ([2]; after 1 minute) was 13.5±1.1 % ID/g, the “Accumulation in the kidney” value ([2]; after 1 minute) was 72.7±5.6 % ID/g and the “Accumulation in the liver” value ([2]; after 1 minute) was 51.1±5.9 % ID/g. For the same compound, the “Accumulation in the tumor” value ([2]; after 1 minute) was 0.3±0.04 % ID/g, the “Accumulation in the blood” value ([2]; after 1 hour) was 2.1±0.2 % ID/g and the “Accumulation in the kidney” value ([2]; after 1 hour) was 77.9±2.1 % ID/g. For the same compound, the “Accumulation in the liver” value ([2]; after 1 hour) was 30.8±3.3 % ID/g, the “Accumulation in the tumor” value ([2]; after 1 hour) was 0.4±0.02 % ID/g and the “Accumulation in the blood” value ([2]; after 6 hours) was 1.0±0.2 % ID/g. For the same compound, the “Accumulation in the kidney” value ([2]; after 6 hours) was 32.1±8.2 % ID/g, the “Accumulation in the liver” value ([2]; after 6 hours) was 19.6±0.5 % ID/g and the “Accumulation in the tumor” value ([2]; after 6 hours) was 0.8±0.09 % ID/g. For the same compound, the “Accumulation in the thyroid gland” value ([2]; after 6 hours of administration) was 0.29±0.05 % ID, the “Accumulation in the blood” value ([2]; after 24 hours) was 0.2±0.04 % ID/g and the “Accumulation in the kidney” value ([2]; after 24 hours) was 3.0±0.1%. For the same compound, the “Accumulation in the liver” value ([2]; after 24 hours) was 5.0±0.2% and the “Accumulation in the tumor” value ([2]; after 24 hours) was 0.4±0.02%.

From US20230241257A1, “BIOTIN-MODIFIED DIMER AND USE THEREOF” (THE UNIVERSITY OF TOKYO, priority 2020, published 2023)
